The record followed here is patent EP0908457B1, “3-(1,2-benzisothiazol- and isoxazol-5-Y1)-2,4(1H,3H)-pyrimidinedione or thione and 3-(1,2-benzisothiazol- and isoxazol-5-y1)-4(3H)-pyrimidinone or thione herbicidal agents” (BASF AKTIENGESELLSCHAFT, priority 1997, dated 1999).

For series [1], the system named is Echinochloa oryzoides (Ard.) Fritsch. Briefly: Preemergence weed control under flooded paddy conditions, ECHORC (Watergrass (Calif.)). As to herbicidal effect rating, ECHORC: meaning of each grade not given here. The following applies: flooded paddy; for herbicidal effect rating, ECHORC: preemergence; for ECHORC: preemergence weeds, herbicidal effect rating 0-9, three to four weeks after treatment. It is filed as in vivo.
For series [2], the system named is Oryza sativa, (L.) Tebonnet. The series can be described thus: Rice tolerance to post-transplant applications under flooded paddy conditions (Example 187), ORYSAT (Rice, Tebonnet). Particulars: rated three to four weeks after treatment.
In the next series the test system is Cyperus iria. Briefly: Preemergence weed control under flooded paddy conditions, CYPIR (Rice Flatsedge). Particulars: flooded paddy; for herbicidal effect rating, CYPIR: preemergence; for CYPIR: preemergence weeds, herbicidal effect rating 0-9, three to four weeks after treatment. It is filed as in vivo.
Series [3] relates to Cyperus serotinus, Rottb. The series can be described thus: Preemergence weed control under flooded paddy conditions, CYPSE (Flatsedge). It is filed as in vivo. Particulars: for herbicidal effect rating, CYPSE: preemergence.
Series [4] concerns Monochoria vaginalis, Presl. The series can be described thus: Preemergence weed control under flooded paddy conditions, MOOVA (Monochoria). The following applies: flooded paddy; for herbicidal effect rating, MOOVA: preemergence; for MOOVA: preemergence weeds, herbicidal effect rating 0-9, three to four weeks after treatment. It is filed as in vivo.
The next series relates to Sagittaria pygmaea, L. The series can be described thus: Preemergence weed control under flooded paddy conditions, SAGPY (Arrowhead (Pygmaea)). It is filed as in vivo. Particulars: flooded paddy; for herbicidal effect rating, SAGPY: preemergence; for SAGPY: preemergence weeds, herbicidal effect rating 0-9, three to four weeks after treatment.
Where [5] appears, read: 0.0313 kg/ha, rated three to four weeks after treatment.
Setting [6] is: 0.0625 kg/ha, rated three to four weeks after treatment.
The mark [7] stands for this setting: 0.1250 kg/ha, rated three to four weeks after treatment.
Where [8] appears, read: 0.2500 kg/ha, rated three to four weeks after treatment.
Where [9] appears, read: Rate 0.0320 kg/ha, rated three to four weeks after treatment.
[10] abbreviates: Rate 0.0620 kg/ha, rated three to four weeks after treatment.
Where [11] appears, read: Rate 0.1250 kg/ha, rated three to four weeks after treatment.
[12] abbreviates: Rate 0.2500 kg/ha, rated three to four weeks after treatment.
Where [13] appears, read: Rate 0.0320 kg/ha, rated 3-4 weeks after treatment.
[14] abbreviates: Rate 0.0620 kg/ha, rated 3-4 weeks after treatment.
[15] abbreviates: Rate 0.1250 kg/ha, rated 3-4 weeks after treatment.
The mark [16] stands for this setting: Rate 0.2500 kg/ha, rated 3-4 weeks after treatment.

Each structure is given as a SMILES string.

Consider `Cn1c(C(F)(F)F)cc(=O)n(-c2ccc3snc(Br)c3c2)c1=O` [Example 36, 3-(3-Bromo-1,2-benzisothiazol-5-yl)-1-methyl-6-(trifluoromethyl)-2,4(1H,3H)-pyrimidinedione], for which the “herbicidal effect rating, ECHORC” value in series [1] (setting [5]), in series [1] (setting [6]), in series [1] (setting [7]) and in series [1] (setting [8]) was 0.0 in each case. The “herbicidal effect rating, ORYSAT (rice tolerance)” value (“herbicidal effect rating, ORYSAT” below) in series [2] (0.0313 kg/ha), in series [2] (0.0625 kg/ha), in series [2] (0.1250 kg/ha) and in series [2] (0.2500 kg/ha) was 1.0 each time.
Take `Cc1ccc(OCC(=O)OC(C)C(C)(C)C)c(-c2nsc3ccc(-n4c(=O)cc(C(F)(F)F)n(C)c4=O)cc23)c1` (centres unmarked) [Example 85, 1,2,2-Trimethylpropyl {{2-{5-[3,6-dihydro-3-methyl-2,6-dioxo-4-(trifluoromethyl)-1(2H)-pyrimidinyl]-1,2-benzisothiazol-3-yl}-p-tolyl}oxy}acetate]: the “herbicidal effect rating, ECHORC” value in series [1] (setting [5]) was 8.0; in series [1] (setting [6]), 9.0; in series [1] (setting [7]), 9.0; in series [1] (setting [8]), 9.0. Besides, the “herbicidal effect rating, ORYSAT” value was 0.0 in series [2] (0.0313 kg/ha), 0.0 in series [2] (0.0625 kg/ha), 0.0 in series [2] (0.1250 kg/ha) and 1.0 in series [2] (0.2500 kg/ha).
As for `Cn1c(C(F)(F)F)cc(=O)n(-c2ccc3snc(CP(=O)(O)O)c3c2)c1=O` [Example 92, {{5-[3,6-Dihydro-3-methyl-2,6-dioxo-4-(trifluoromethyl)-1(2H)-pyrimidinyl]-1,2-benzisothiazol-3-yl}methyl}phosphonic acid], the “herbicidal effect rating, ECHORC” value in series [1] (setting [5]) came out at 4.0; in series [1] (setting [6]), 6.0; in series [1] (setting [7]) it was 9.0; in series [1] (setting [8]), 9.0. For the same molecule, the “herbicidal effect rating, ORYSAT” value in series [2] (0.0313 kg/ha) worked out at 3.0; in series [2] (0.0625 kg/ha), 5.0; in series [2] (0.1250 kg/ha), 6.0; in series [2] (0.2500 kg/ha) it was 6.0.
Turning to `Cn1c(C(F)(F)F)cc(=O)n(-c2ccc3snc(Cl)c3c2)c1=O` [Example 37, 3-(3-Chloro-1,2-benzisothiazol-5-yl)-1-methyl-6-(trifluoromethyl)-2,4(1H,3H)-pyrimidinedione], the “herbicidal effect rating, ECHORC” value in series [1] (setting [5]) is recorded as 4.0; in series [1] (setting [6]) it was 7.0; in series [1] (setting [7]) it was 8.0; in series [1] (setting [8]), 9.0. Moreover, the “herbicidal effect rating, ORYSAT” value in series [2] (0.0313 kg/ha) was 0.0; in series [2] (0.0625 kg/ha), 1.0; in series [2] (0.1250 kg/ha), 1.0; in series [2] (0.2500 kg/ha) it was 1.0.
For `Cn1c(C(F)(F)F)cc(=O)n(-c2ccc3snc(COC(=O)CCl)c3c2)c1=O` [Example 368, 2,4(1H,3H)-Pyrimidinedione, 3-[3-(hydroxymethyl)-1,2-benzisothiazol-5-yl]-1-methyl-6-(trifluoromethyl)-, chloroacetate (ester)], the “herbicidal effect rating, ECHORC” value in series [1] (setting [9]) is 3.0; in series [1] (setting [10]), 7.0; in series [1] (setting [11]), 7.0; in series [1] (setting [12]), 8.0. Besides, the “herbicidal effect rating, CYPIR” value in the series on Cyperus iria (setting [9]) was 7.0; in the series on Cyperus iria (setting [10]) it was 9.0; with Cyperus iria (setting [11]), 9.0; in the series on Cyperus iria (setting [12]) it was 9.0. Also, the “herbicidal effect rating, CYPSE” value in series [3] (setting [9]) is given as 0.0; in series [3] (setting [10]), 4.0; in series [3] (setting [11]) it was 7.0; in series [3] (setting [12]), 8.0. Besides, the “herbicidal effect rating, MOOVA” value in series [4] (setting [9]), in series [4] (setting [10]), in series [4] (setting [11]) and in series [4] (setting [12]) was 9.0 each time. Moreover, the “herbicidal effect rating, SAGPY” value in the series with Sagittaria pygmaea, L. (setting [9]) turned out to be 5.0; in the series on Sagittaria pygmaea, L. (setting [10]), 6.0; with Sagittaria pygmaea, L. (setting [11]), 9.0; in the series on Sagittaria pygmaea, L. (setting [12]), 9.0.
Consider `Cn1c(C(F)(F)F)cc(=O)n(-c2ccc3snc(C(C#N)=CC4CC4)c3c2)c1=O` [Example 458, 1,2-Benzisothiazole-3-acetonitrile, alpha(cyclopropylmethylene)-5-[3,6-dihydro-3-methyl-2,6-dioxo-4-(trifluoromethyl)-1(2H)-pyrimidinyl]-, (E)- and (Z)-], for which the ECHORC in series [1] (0.0320 kg/ha) amounted to 5.0; in series [1] (0.0620 kg/ha) it was 6.0; in series [1] (0.1250 kg/ha), 7.0; in series [1] (0.2500 kg/ha), 8.0. Further, the CYPIR in the series on Cyperus iria (0.0320 kg/ha) amounted to 0.0; in the series on Cyperus iria (0.0620 kg/ha) it was 4.0; in the series with Cyperus iria (0.1250 kg/ha), 7.0; with Cyperus iria (0.2500 kg/ha), 7.0. The same molecule returned a CYPSE in series [3] (0.0320 kg/ha, preemergence weeds, herbicidal effect rating 0-9, three to four weeks after treatment) of 2.0. For the same molecule, the MOOVA came to 4.0 in series [4] (0.0320 kg/ha), 6.0 in series [4] (0.0620 kg/ha), 9.0 in series [4] (0.1250 kg/ha) and 9.0 in series [4] (0.2500 kg/ha). The SAGPY in the series with Sagittaria pygmaea, L. (0.0320 kg/ha) is on record as 2.0; in the series on Sagittaria pygmaea, L. (0.0620 kg/ha), 2.0; with Sagittaria pygmaea, L. (0.1250 kg/ha), 6.0; with Sagittaria pygmaea, L. (0.2500 kg/ha), 8.0.
For the molecule `Cc1ccc(OCC(=O)OCC2CCOC2)c(-c2nsc3ccc(-n4c(=O)cc(C(F)(F)F)n(C)c4=O)cc23)c1` (racemic) [Example 535, Acetic acid, {{2-{5-[3,6-dihydro-3-methyl-2,6-dioxo-4-(trifluoromethyl)-1(2H)-pyrimidinyl]-1,2-benzisothiazol-3-yl}-p-tolyl}oxy}-, (tetrahydro-3-furyl)methyl ester, DL-], the “herbicidal effect rating, ECHORC” value in series [1] (setting [13]) came out at 0.0; in series [1] (setting [14]), 3.0; in series [1] (setting [15]) it was 3.0; in series [1] (setting [16]) it was 4.0. For the same molecule, the “herbicidal effect rating, CYPIR” value is recorded as 0.0 in the series with Cyperus iria (setting [13]), 6.0 in the series with Cyperus iria (setting [14]), 9.0 in the series with Cyperus iria (setting [15]) and 9.0 with Cyperus iria (setting [16]). In addition, the “herbicidal effect rating, CYPSE” value in series [3] (setting [13]) is 0.0; in series [3] (setting [14]), 3.0; in series [3] (setting [15]), 5.0; in series [3] (setting [16]), 5.0. The “herbicidal effect rating, MOOVA” value is 6.0 in series [4] (setting [13]), 9.0 in series [4] (setting [14]), 9.0 in series [4] (setting [15]) and 9.0 in series [4] (setting [16]). For the same molecule, the “herbicidal effect rating, SAGPY” value in the series with Sagittaria pygmaea, L. (setting [13]) is recorded as 0.0; in the series on Sagittaria pygmaea, L. (setting [14]) it was 0.0; in the series with Sagittaria pygmaea, L. (setting [15]), 3.0; in the series with Sagittaria pygmaea, L. (setting [16]), 3.0.
